Here are results for four molecules from patent US12391680B2, “Compounds and compositions for the treatment of cystic fibrosis” (FONDAZIONE ISTITUTO ITALIANO DI TECNOLOGIA, priority 2019, dated 2025).

Holding throughout (format): cell-based
Assay [1] addresses T1, F508del-CFTR (Homo sapiens, UniProt P13569, DEL508-508). Briefly: Short-circuit current recordings on human bronchial epithelial cells from CF patients (F508del/F508del). The arrangement: Human bronchial epithelial (HBE) cells obtained from CF patients (F508del/F508del genotype); endogenous in cells; host or cells: primary human bronchial epithelial cells from CF patients, F508del/F508del. The settings on record: HBE cells F508del/F508del, 24 hrs treatment, CPT-cAMP plus VX-770 minus CFTRinh-172. As for the experimental part: Human bronchial epithelial (HBE) cells obtained from CF patients (F508del/F508del genotype) were plated on Snapwell inserts (Code 3801, Corning Life Sciences) at a density of 500,000 cells per insert. Cells were cultured for two weeks in a differentiating medium whose compositions has been previously described (Scudieri et al., J Physiol 590:6141-6155, 2012). For the first week, the medium was kept on both apical and basolateral sides of inserts (submerged condition). For the second week, the apical medium was removed (air-liquid condition, ALC). To test the activity of correctors, cells were treated for 24 hrs with compounds dissolved in the basolateral medium. After treatment, Snapwell inserts carrying differentiated bronchial epithelia were mounted in a vertical chamber resembling an Ussing system with internal fluid circulation. Both apical and basolateral hemichambers were filled with 5 mL of a Krebs bicarbonate solution containing (in mM): 126 NaCl, 0.38 KH2PO4, 2.13 K2HPO4, 1 MgSO4, 1 CaCl2, 24 NaHCO3, and 10 glucose. Both sides were continuously bubbled with a gas mixture containing 5% CO2-95% air and the temperature of the solution was kept at 37° C. The transepithelial voltage was short-circuited with a voltage-clamp (DVC-1000, World Precision Instruments) connected to the apical and basolateral chambers via Ag/AgCl electrodes and agar bridges (1 M KCl in 1% agar). The offset between voltage electrodes and the fluid resistance were canceled before experiments. The short-circuit current was recorded with a PowerLab 4/25 (ADInstruments) analogical to digital converter connected to a Macintosh computer. […] The difference between the current measured with CPT-cAMP plus potentiator and the current remaining after CFTRinh-172 treatment (ΔICFTR) was taken as the parameter reflecting F508del-CFTR expression in the apical membrane.
Activities of selected compounds on HBE cells (expressed as ΔICFTR) are illustrated in Table 3 wherein+: ΔICFTR<2.0 μA; ++: 2.0 μA<ΔICFTR<3.0 μA; +++: ΔICFTR >3.0 μA.

A further assay has as its target mutant CFTR (Homo sapiens, UniProt P13569). Briefly: Fluorescence assay for CFTR activity (halide-sensitive YFP, HS-YFP). The note with it: CFBE41o- and FRT cells with stable expression of mutant CFTR. The essentials: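 CFBE41o- or FRT cells stably expressing mutant CFTR and HS-YFP; correctors given 24 h, then 30 min forskolin 20 μM plus genistein 50 μM. Potentiators given 30 min with forskolin 20 μM, after 24 h at 27° C. for F508del, directly for G551D or G1349D. Quenching rate after 100 mM final I^− gives EC50.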

In assay [2] the target is T1, F508del-CFTR. Briefly: Transepithelial electrical conductance (TEEC) in FRT cells expressing F508del-CFTR. The arrangement: expressed in transfected cells; host or cells: FRT cells. The settings on record: tested at 5.0 μM, 24 hrs incubation. On the procedure: FRT cells expressing F508del-CFTR were plated on HTS Transwell-24 well permeable supports (Code 3379, Corning Life Sciences) at a density of 200,000 cells/well. After six days, cells were incubated for 24 hrs with test correctors, vehicle, or VX-809. Compounds were dissolved in both basolateral (800 μL) and apical (300 μL) culture medium. After treatment, the culture medium was removed and replaced on both sides with a saline solution containing (in mM): 130 NaCl, 2.7 KCl, 1.5 KH2PO4, 1 CaCl2, 0.5 MgCl2, 10 glucose, 10 Na-Hepes (pH 7.4). The basolateral and apical side received 800 μL and 100 μL, respectively. The 24-well tray with cells was placed on a block heater (SBH 130D, Stuart) to keep the temperature at 37° C. during the entire experiment. After 10 min, the basal transepithelial electrical resistance (TEER) across each layer of FRT cells was measured with a STX100C electrode pair connected to an EVOM2 voltohmeter (World Precision Instruments). To stimulate F508del-CFTR, each well received (apical side) 50 μL of saline solution containing 60 μM forskolin and 150 μM genistein (final concentrations: 20 μM forskolin, 50 μM genistein). Forskolin was also pipetted in the basolateral medium to obtain the 20 μM concentration. After 10 min TEER was measured again in each well. To block F508del-CFTR function, the inhibitor PPQ-102 was used at the final concentration of 30 μM. To achieve the desired concentration, 75 μL of the apical solution in each well was replaced with an equal volume of saline solution containing 20 μM forskolin, 50 μM genistein, and 60 μM PPQ-102. After further 10 min, the transepithelial electrical resistance was measured. All values of TEER were converted to transepithelial electrical conductance (TEEC) using the formula TEEC=1/TEER. The parameter to indicate activity of F508del-CFTR in each well (ATEEC) was calculated from the difference in TEEC measured after maximal stimulation of F508del-CFTR with forskolin and genistein and after block with PPQ-102.
Corrector activities obtained on selected compounds tested at 5.0 μM (expressed as ΔTEEC values) are illustrated in Table 2, wherein+: ΔTEEC<2000 μS; ++: 2000 μS <ΔTEEC<3000ρS; +++: ΔTEEC>3000 μS.

T1 sequence (P13569 with tags, fused parts or gaps DEL508-508): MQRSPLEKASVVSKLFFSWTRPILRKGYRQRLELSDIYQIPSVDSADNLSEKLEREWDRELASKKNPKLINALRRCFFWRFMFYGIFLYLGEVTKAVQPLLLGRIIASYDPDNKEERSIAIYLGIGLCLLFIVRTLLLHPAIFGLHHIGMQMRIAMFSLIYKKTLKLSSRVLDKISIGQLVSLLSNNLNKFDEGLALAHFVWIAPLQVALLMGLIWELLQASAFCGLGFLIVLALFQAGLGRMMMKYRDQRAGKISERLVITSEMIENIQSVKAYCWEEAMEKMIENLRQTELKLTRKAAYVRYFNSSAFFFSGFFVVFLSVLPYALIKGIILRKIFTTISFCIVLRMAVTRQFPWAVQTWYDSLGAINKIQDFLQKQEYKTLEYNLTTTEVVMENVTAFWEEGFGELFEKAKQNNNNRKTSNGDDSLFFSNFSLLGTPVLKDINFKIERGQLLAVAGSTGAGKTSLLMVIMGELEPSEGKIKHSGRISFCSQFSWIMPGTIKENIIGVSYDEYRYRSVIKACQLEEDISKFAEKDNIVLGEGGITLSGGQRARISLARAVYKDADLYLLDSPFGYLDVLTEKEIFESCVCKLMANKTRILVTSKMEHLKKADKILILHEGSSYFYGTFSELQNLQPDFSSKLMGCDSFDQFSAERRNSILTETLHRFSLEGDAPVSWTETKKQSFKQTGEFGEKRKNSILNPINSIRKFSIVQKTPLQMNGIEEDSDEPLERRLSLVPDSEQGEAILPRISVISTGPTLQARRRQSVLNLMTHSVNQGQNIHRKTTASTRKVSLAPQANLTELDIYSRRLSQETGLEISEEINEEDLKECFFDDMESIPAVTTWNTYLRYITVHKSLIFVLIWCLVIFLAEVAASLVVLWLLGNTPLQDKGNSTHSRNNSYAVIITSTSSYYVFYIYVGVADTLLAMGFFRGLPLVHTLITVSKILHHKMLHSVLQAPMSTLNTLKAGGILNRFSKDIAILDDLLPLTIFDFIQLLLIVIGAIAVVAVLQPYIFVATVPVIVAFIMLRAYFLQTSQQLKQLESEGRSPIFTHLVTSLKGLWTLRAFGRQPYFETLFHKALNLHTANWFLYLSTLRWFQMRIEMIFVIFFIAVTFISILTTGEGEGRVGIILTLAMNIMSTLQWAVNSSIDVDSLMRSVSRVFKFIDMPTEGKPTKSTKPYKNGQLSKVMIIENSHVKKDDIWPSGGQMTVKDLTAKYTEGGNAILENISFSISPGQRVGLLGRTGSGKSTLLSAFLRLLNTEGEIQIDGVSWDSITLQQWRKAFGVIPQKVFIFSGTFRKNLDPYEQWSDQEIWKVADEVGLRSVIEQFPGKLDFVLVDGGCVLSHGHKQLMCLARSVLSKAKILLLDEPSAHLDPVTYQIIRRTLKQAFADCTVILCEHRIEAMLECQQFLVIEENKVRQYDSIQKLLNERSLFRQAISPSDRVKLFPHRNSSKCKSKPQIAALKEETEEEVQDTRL
Sequence of mutant CFTR (P13569 with tags, fused parts or gaps DEL508-508): as above

Take `Cc1cc(S(=O)(=O)N2CCOC(c3c(C(N)=O)sc4ccccc34)C2)ccc1F` (racemic) [compound 001, rac-3-[4-(4-fluoro-3-methyl-benzenesulfonyl)-morpholin-2-yl]-benzo[b]thiophene-2-carboxylic acid amide]: the “activity (ΔICFTR)” value at F508del-CFTR [1] is on record as “+ (ΔICFTR<2.0 μA)”. Moreover, the EC50 at mutant CFTR is > 2000 nM. For the same molecule, the “activity (corrector activity expressed as ΔTEEC)” value on F508del-CFTR [2] is listed as “++ (2000 μS <ΔTEEC<3000ρS)”.

On to `NC(=O)c1sc2ccccc2c1C1CN(S(=O)(=O)c2ccc(C(F)(F)F)cc2)CCO1` (racemic) [compound 011, rac-3-[4-[4-(trifluoromethyl)phenyl]sulfonylmorpholin-2-yl]benzothiophene-2-carboxamide], for which the “activity (ΔICFTR)” value at F508del-CFTR [1] is recorded as “+++ (ΔICFTR >3.0 μA)”. For the same molecule, the EC50 on mutant CFTR lay within 1000 to 2000 nM. Also, the “activity (corrector activity expressed as ΔTEEC)” value on F508del-CFTR [2] is “++ (2000 μS <ΔTEEC<3000ρS)”.

As to `Cc1nc2ccc(S(=O)(=O)N3CCOC(c4c(C(N)=O)sc5ccccc45)C3)cc2o1` (racemic) [compound 034, rac-3-[4-[(2-methyl-1,3-benzoxazol-6-yl)sulfonyl]morpholin-2-yl]benzothiophene-2-carboxamide], at F508del-CFTR [1], the “activity (ΔICFTR)” value is listed as “+++ (ΔICFTR >3.0 μA)”. In addition, at mutant CFTR, the EC50 is < 1000 nM. Moreover, on F508del-CFTR [2], the “activity (corrector activity expressed as ΔTEEC)” value is given as “++ (2000 μS <ΔTEEC<3000ρS)”.

For `NC(=O)c1sc2ccccc2c1C1CN(S(=O)(=O)c2ccc(C(F)(F)F)c(F)c2)CCO1` (racemic) [compound 041, rac-3-[4-[3-fluoro-4-(trifluoromethyl)phenyl]sulfonylmorpholin-2-yl]benzothiophene-2-carboxamide], at F508del-CFTR [1], the “activity (ΔICFTR)” value is given as “++ (2.0 μA<ΔICFTR<3.0 μA)”. Moreover, the concentration giving a half-maximal response (EC50) at mutant CFTR is < 1000 nM. In addition, the “activity (corrector activity expressed as ΔTEEC)” value at F508del-CFTR [2] is given as “+++ (ΔTEEC>3000 μS)”.
